Assay results published in the supplement of paper PMC10307832.

Columns and labels:
Test in all cases: relative viability (nuclei count vs DMSO), 5 days (fraction); higher = more cells survive
[1] = compound: CC(C)N(CCCNC(=O)Nc1ccc(C(C)(C)C)cc1)C[C@H]1O[C@@H](n2ccc3c(N)ncnc32)[C@H](O)[C@@H]1O + O=C(c1cc(Cc2n[nH]c(=O)c3ccccc23)ccc1F)N1CCN(C(=O)C2CC2)CC1 [Olaparib] (partner 8 µM)
Outline: (§1)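 Dosing by pin tool came one day after lung cancer cell lines were seeded in 1536-well plates, using either one drug or a fixed anchor-drug dose plus five library-drug doses (not always all listed) in √10 steps. After 5 days, nuclei were counted on 4× images. Relative viability is treated-well nuclei count divided by vehicle-well nuclei count, and values are medians of duplicate plates.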

Shikonin + Lapatinib = compound: CC(C)=CC[C@@H](O)C1=CC(=O)c2c(O)ccc(O)c2C1=O [Shikonin] + CS(=O)(=O)CCNCc1ccc(-c2ccc3ncnc(Nc4ccc(OCc5cccc(F)c5)c(Cl)c4)c3c2)o1 [Lapatinib] (partner 2 µM)
Outline: as §1

[2] = compound: CC(C)N(CCCNC(=O)Nc1ccc(C(C)(C)C)cc1)C[C@H]1O[C@@H](n2ccc3c(N)ncnc32)[C@H](O)[C@@H]1O + Cc1cc(Nc2cc(N3CCN(C)CC3)nc(Sc3ccc(NC(=O)C4CC4)cc3)n2)n[nH]1 [Tozasertib] (partner 0.1 µM)
Outline: as §1

[3] = compound: CC(C)N(CCCNC(=O)Nc1ccc(C(C)(C)C)cc1)C[C@H]1O[C@@H](n2ccc3c(N)ncnc32)[C@H](O)[C@@H]1O + Cc1nc(NC(=O)N2CCC[C@H]2C(N)=O)sc1-c1ccnc(C(C)(C)C(F)(F)F)c1 [Alpelisib] (partner 2 µM)
Outline: as §1

Cell Line	relative viability ([1]; first compound 0.08 µM)	relative viability ([1]; first compound 0.253 µM)	relative viability ([1]; first compound 2.53 µM)	relative viability ([1]; first compound 8 µM)	relative viability (Shikonin + Lapatinib; first compound 0.01 µM)	relative viability (Shikonin + Lapatinib; first compound 0.1 µM)	relative viability (Shikonin + Lapatinib; first compound 0.3162 µM)	relative viability (Shikonin + Lapatinib; first compound 1 µM)	relative viability ([2]; first compound 0.08 µM)	relative viability ([2]; first compound 0.253 µM)	relative viability ([2]; first compound 0.8 µM)	relative viability ([2]; first compound 2.53 µM)	relative viability ([2]; first compound 8 µM)	relative viability ([3]; first compound 0.08 µM)	relative viability ([3]; first compound 0.253 µM)	relative viability ([3]; first compound 0.8 µM)	relative viability ([3]; first compound 2.53 µM)	relative viability ([3]; first compound 8 µM)	relative viability ([1]; first compound 0.8 µM)
PC-3 [JPC-3]	1.12	1.15	1.11	1.07	0.443	0.512	0.479	0.543	0.856	0.976	0.831	0.851	0.763	1.04	1	0.896	1	1.01	–
PC-14	0.303	0.249	0.257	0.247	0.334	0.342	0.329	0.326	0.529	0.598	0.598	0.6	0.551	0.883	0.818	0.988	0.964	0.794	0.281
RERF-LC-KJ	0.887	1.04	1	0.963	0.972	0.939	0.83	0.941	0.505	0.495	0.546	0.509	0.474	0.826	0.757	0.868	0.838	0.815	0.843
SK-LU-1	0.424	0.448	0.552	0.469	1.07	0.869	0.724	0.786	0.35	0.41	0.352	0.49	0.346	1.22	1.15	1.28	1.16	1.01	0.516
SK-MES-1	0.83	0.811	0.713	0.662	0.543	0.509	0.514	0.463	0.855	0.959	0.962	0.92	0.872	0.992	0.897	0.754	0.945	0.838	0.734
SW 1573	0.464	–	0.441	0.53	1.07	1.18	1.14	1.19	0.201	0.151	0.201	0.193	0.163	0.771	0.708	0.734	0.949	0.667	0.517
